Consider 47 compounds from US20160002247A1, “8-SUBSTITUTED IMIDAZOPYRIMIDINONE DERIVATIVE HAVING AUTOTAXIN INHIBITORY ACTIVITY” (THE UNIVERSITY OF TOKYO, priority 2013, published 2016).

Where two headings read alike, the source gives them in different places.

The assay deals with T1, Human autotaxin enzyme (Homo sapiens, UniProt Q13822).
T1 construct: purchased R&D System
Kind of assay: Evaluation of autotaxin inhibitor, Method C (Test Example 3): 18:0 Lyso PC, choline assay, Resorufin fluorescence. Format: biochemical. The settings on record: human autotaxin, 18:0 Lyso PC substrate. How it is done:
(Method C) Evaluation of Autotaxin Inhibitor
Solution B containing 100 mM Tris-HCl buffer (pH7.5), 150 mM NaCl, 5 mM MgCl2 and 0.05% Triton X-100 was prepared. Human autotaxin enzyme (purchased from R&D System) was diluted with Solution B, and 2.5 μL of which was added to a solution of test compound in DMSO. Furthermore, 2.5 μl of 200 μM 18:0 Lyso PC (purchased from Avanti Polar Lipids) in Solution B was added and allowed to react at room temperature for 2 hours. After completion of the reaction, 15 μL of the coline assay reagent (100 mM Tris-HCl buffer (pH7.5), 5 mM MgCl2, 77 μg/mL choline oxidase, 10 μg/mL peroxidase, 25 μM 10-acetyl-3,7-dihydroxyphenoxazine and excess autotaxin inhibitor) was added and allowed to react at room temperature for 20 minutes. The fluorescent dye Resorufin, which was produced by the reaction, was detected. The fluorescence was detected using ViewLux (PerkinElmer, Inc.) with an excitation wavelength of 531 nm and a fluorescence wavelength of 598 nm.
The percent inhibition of the test compound was calculated by assuming the sample with no test compound as 0% inhibition and the sample with no enzyme as 100% inhibition, and the percent inhibitions at different concentrations of the test compound were plotted to obtain a concentration-dependent curve.

Setting [1] is: Assay Method C (Test Example 3), read-out: Inhibitory Activity (autotaxin enzyme inhibitory activity, IC50 class).
Where [2] appears, read: Assay Method C, read-out: Inhibitory Activity.

Turning to `CCCCCn1c(-c2ccc(C(=O)NC[C@@H](O)CO)cc2)cc(=O)n2cc(-c3ccc(Cl)cc3)nc12` [Compound 504], the IC50 under setting [1] lay in the range of 10 to 100 nM. On the same count and under the same terms, the value for `CCCCCn1c(-c2cccc(C(=O)NCCOC)c2)cc(=O)n2cc(-c3ccc(Cl)cc3)nc12` [Compound 436] was 10 to 100 nM; that for `CCCCCn1c(NCCC(=O)O)cc(=O)n2cc(-c3ccc(Cl)cc3)nc12` [Compound 601] was 100 to 1000 nM; that for `CCCCCn1c(N2CCC[C@H]2C(=O)N2CCC[C@@H](C(=O)OCC)C2)cc(=O)n2cc(-c3ccc(Cl)cc3)nc12` [Compound 688] was 10 to 100 nM.

For the compound `CN(C)CCNC(=O)c1ccc(-c2cc(=O)n3cc(-c4ccc(C#N)cc4)nc3n2CCCC(F)(F)F)cc1` [Compound 387], the IC50 under setting [1] is 10 to 100 nM. For the compound `CCCCCn1c(N2CCN(S(=O)(=O)N(C)C)CC2)cc(=O)n2cc(-c3ccc(Cl)cc3)nc12` [Compound 297], the IC50 under setting [1] was in the range of 100 to 1000 nM. In the case of `CCCCCn1c(-c2ccc(C(=O)NCCOCCO)cc2)cc(=O)n2cc(-c3ccc(Cl)cc3)nc12` [Compound 480], the IC50 under setting [1] lay within 10 to 100 nM. Regarding `CCCCCn1c(O[C@H]2CC[C@H](C(C)(C)C(=O)O)CC2)cc(=O)n2cc(-c3ccc(Cl)cc3)nc12` [Compound 556], under setting [1], the IC50 lay in the range of 10 to 100 nM. Take `CCCCCn1c(N2CCC[C@H]2C(=O)NC2CCCCNC2=O)cc(=O)n2cc(-c3ccc(Cl)cc3)nc12` (some centres unmarked) [Compound 694]: under setting [1], the IC50 is 10 to 100 nM. The same measure, in the same setting: the value for `CCCCCn1c(N2CCCC(O)(c3ccc(F)cc3)C2)cc(=O)n2cc(-c3ccc(Cl)cc3)nc12` (centres unmarked) [Compound 317] was over 1000 nM; that for `CCCCCn1c(N2C[C@@H](O)C[C@H]2C(=O)NC(C)(C)CC(=O)O)cc(=O)n2cc(-c3ccc(Cl)cc3)nc12` [Compound 586] was under 10 nM. Consider `CCCCCn1c(N2CCC[C@H]2C(=O)NC2CCCNC2=O)cc(=O)n2cc(-c3ccc(Cl)cc3)nc12` (some centres unmarked) [Compound 710], for which the IC50 under setting [1] is 100 to 1000 nM. For the compound `CCCCCn1c(NCCC(=O)NCC(=O)O)cc(=O)n2cc(-c3ccc(Cl)cc3)nc12` [Compound 630], under setting [1], the IC50 was in the range of 100 to 1000 nM. For `CCCCCn1c(N2CCC[C@H]2C(=O)NCC2CCN(C)C2)cc(=O)n2cc(-c3ccc(Cl)cc3)nc12` (some centres unmarked) [Compound 650], the IC50 under setting [1] is over 1000 nM. Take `CCCCCn1c(N2CCC(NC(C)=O)CC2)cc(=O)n2cc(-c3ccc(Cl)cc3)nc12` [Compound 294]: the IC50 under setting [1] is 100 to 1000 nM. The same measure, in the same setting: the value for `CCCCCn1c(N2CCN(S(=O)(=O)N3CCOCC3)CC2)cc(=O)n2cc(-c3ccc(Cl)cc3)nc12` [Compound 296] was 100 to 1000 nM; that for `CCCCCn1c(OC2CN(CCC(=O)O)C2)cc(=O)n2cc(-c3ccc(Cl)cc3)nc12` [Compound 570] was under 10 nM.

`CCCCCn1c(-c2ccc(C(=O)NC[C@H](O)CO)cc2)cc(=O)n2cc(-c3ccc(Cl)cc3)nc12` [Compound 486]: the IC50 under setting [1] was under 10 nM. The same measure, in the same setting: the value for `CCCCCn1c(-c2cncc(OC)c2)cc(=O)n2cc(-c3ccc(Cl)cc3)nc12` [Compound 461] was 10 to 100 nM. With `N#CC1CN(C(=O)Cc2cn(CCCC(F)(F)F)c3nc(-c4ccc(Cl)cc4)cn3c2=O)CCO1` (centres unmarked) [Compound 862], the IC50 under setting [2] was 10 to 100 nM. `N#CCCCCn1c(N2CCC(C(=O)O)CC2)cc(=O)n2cc(-c3ccc(C#N)cc3)nc12` [Compound 284]: the IC50 under setting [1] is 10 to 100 nM. With `CCCCCn1c(-c2ccc(C(=O)NC3(CO)CCC3)cc2)cc(=O)n2cc(-c3ccc(Cl)cc3)nc12` [Compound 497], the IC50 under setting [1] is 10 to 100 nM. `CCCCCn1c(N2CCC[C@H]2C(=O)NCCCCCN2CCOCC2)cc(=O)n2cc(-c3ccc(Cl)cc3)nc12` [Compound 654]: under setting [1], the IC50 was under 10 nM. Consider `CCCCCn1c(-c2cnc(OC)nc2OC)cc(=O)n2cc(-c3ccc(Cl)cc3)nc12` [Compound 454], for which the IC50 under setting [1] fell in the range of 10 to 100 nM. Turning to `Cn1c(N2CCC[C@H]2C(=O)N[C@H](C(=O)O)C(C)(C)C)cc(=O)n2cc(-c3ccc(Cl)cc3)nc12` [Compound 770], under setting [1], the IC50 is 100 to 1000 nM. Regarding `CCCCCn1c(-c2cnc(C(=O)OC)nc2)cc(=O)n2cc(-c3ccc(Cl)cc3)nc12` [Compound 532], under setting [1], the IC50 is 10 to 100 nM. On the same count and under the same terms, the value for `CCCCCn1c(N2CCC[C@H]2C(=O)N(C)CCCO)cc(=O)n2cc(-c3ccc(Cl)cc3)nc12` [Compound 346] was 10 to 100 nM; that for `CCCCCn1c(N2CCC[C@@H](C(=O)NCCC(=O)O)C2)cc(=O)n2cc(-c3ccc(Cl)cc3)nc12` [Compound 624] was 10 to 100 nM; that for `CCCCCn1c(NCc2ccc(C(=O)O)cc2)cc(=O)n2cc(-c3ccc(Cl)cc3)nc12` [Compound 192] was 10 to 100 nM. For `CCCCCn1c(-c2ccc(C(=O)NCCS(C)(=O)=O)cc2)cc(=O)n2cc(-c3ccc(Cl)cc3)nc12` [Compound 494], under setting [1], the IC50 is 10 to 100 nM. On the same count and under the same terms, under `CCCCCn1c(N2CCC[C@H]2C(=O)NCCC(=O)O)cc(=O)n2cc(-c3ccc(Cl)cc3)nc12` [Compound 326] stands under 10 nM; under `CCCCCn1c(N2CCC[C@H]2C(=O)N[C@H](C)C(N)=O)cc(=O)n2cc(-c3ccc(Cl)cc3)nc12` [Compound 709], 100 to 1000 nM; under `C[C@H](NC(=O)[C@@H]1C[C@@H](O)CN1c1cc(=O)n2cc(-c3ccc(Cl)cc3)nc2n1Cc1ccccc1)C(=O)O` [Compound 754], under 10 nM. On the same count and under the same terms, under `CCCCCn1c(N2CCN(C(=O)OC(C)(C)C)C[C@H]2C(=O)O)cc(=O)n2cc(-c3ccc(Cl)cc3)nc12` [Compound 641] stands over 1000 nM; under `CCCCCn1c(-c2cnn(CCN3CCOCC3)c2)cc(=O)n2cc(-c3ccc(Cl)cc3)nc12` [Compound 425], 10 to 100 nM; under `CCCCCn1c(N2CCCC(CN)C2)cc(=O)n2cc(-c3ccc(Cl)cc3)nc12` (centres unmarked) [Compound 328], 100 to 1000 nM. `CCCCCn1c(N2CCC[C@H]2C(=O)NC(CO)C(=O)O)cc(=O)n2cc(-c3ccc(Cl)cc3)nc12` (some centres unmarked) [Compound 672]: the IC50 under setting [1] lay within 10 to 100 nM. In the case of `C[C@H](NC(=O)[C@@H]1CCCN1c1cc(=O)n2cc(-c3ccc(Cl)cc3)nc2n1C)C(=O)O` [Compound 771], the IC50 under setting [1] was 100 to 1000 nM. `CCCCCn1c(N2CCC[C@H]2C(=O)NCCCN2CCCC2=O)cc(=O)n2cc(-c3ccc(Cl)cc3)nc12` [Compound 642]: the IC50 under setting [1] lay within 10 to 100 nM. Same read-out and setting: under `CCCCCn1c(-c2cccc(C(C)=O)c2)cc(=O)n2cc(-c3ccc(Cl)cc3)nc12` [Compound 447] stands 10 to 100 nM; under `CCCCCn1c(N2CCC[C@H]2C(=O)N[C@H](C(=O)O)C(C)C)cc(=O)n2cc(-c3ccc(Cl)cc3)nc12` [Compound 723], under 10 nM.

Take `Cc1noc(CNC(=O)Cc2cn(CCCC(F)(F)F)c3nc(-c4ccc(Cl)cc4)cn3c2=O)n1` [Compound 863]: the IC50 under setting [2] lay in the range of 100 to 1000 nM. Regarding `O=C1CCN(C(=O)Cc2cn(CCCC(F)(F)F)c3nc(-c4ccc(Cl)cc4)cn3c2=O)C1` [Compound 860], the IC50 under setting [2] fell in the range of 100 to 1000 nM. Consider `CCCCCn1c(-c2ccc(CCCO)cc2)cc(=O)n2cc(-c3ccc(Cl)cc3)nc12` [Compound 446], for which the IC50 under setting [1] is 100 to 1000 nM. The same measure, in the same setting: the value for `CCCCCn1c(OCC2(C)COC2)cc(=O)n2cc(-c3ccc(Cl)cc3)nc12` [Compound 719] was 100 to 1000 nM; that for `CCCCCn1c(N2CCN(CCC(=O)c3ccc4[nH]c(=O)oc4c3)CC2)cc(=O)n2cc(-c3ccc(Cl)cc3)nc12` [Compound 190] was 10 to 100 nM. On the same count and under the same terms, the value for `CCCCCn1c(-c2ccc(S(=O)(=O)NC)cc2)cc(=O)n2cc(-c3ccc(Cl)cc3)nc12` [Compound 431] was 10 to 100 nM.
